Reference: US20230255954A1, “INTERLEUKIN 33 (IL-33) INHIBITION FOR TREATMENT OF CANCER, FIBROSIS AND INFLAMMATION” (The General Hospital Corporation, priority 2020, published 2023)
Blank lines part the entries; values can stand above or below the molecule they belong to.

How the values were obtained:
[1] = tested on: mouse Il33 gene promoter (IL-33 promoter-luci reporter); assay: IL-33 promoter luciferase screen of FDA-approved Drug Library; format: cell-based; settings: 10 μM, 24 hours; IL-33 promoter-luci vs control-luci stable Pam212 cells; 1056 molecules tested
Protocol: Pam212 cells were grown at 37° C. in DMEM (Thermo Fisher Scientific, Waltham, Mass., catalog no. 11995065) supplemented with 10% fetal bovine serum (Thermo Fisher Scientific, catalog no. 26140079), 1× penicillin-streptomycin-glutamine (Thermo Fisher Scientific, catalog no. 10378016), 1×MEM non-essential amino acids solution (Thermo Fisher Scientific, catalog no. 11140050), 1×HEPES (Thermo Fisher Scientific, catalog no. 15630080) and 0.1% 2-Mercaptoethanol (Thermo Fisher Scientific, catalog no. 21985023). PyMT cell lines (derived from a primary breast tumor of MMTV-PyMrg mouse on a C57BL/6 background) were grown at 37° C. in RPMI Medium 1640 (Thermo Fisher Scientific, catalog no. 11875093) supplemented with 10% fetal bovine serum, 1× penicillin-streptomycin-glutamine and 0.1% 2-Mercaptoethanol. IL-33 promoter-luci vector (GeneCopoeia, Rockville, Md., catalog no. MPRM3494-PG02) or Control-luci vector (deletion form of IL-33 promoter region from IL-33 promoter-luci vector) or Poly (I:C) (Invivogen, San Diego, Calif., catalog no. tlrl-pic) in Pam212 cells were performed using Lipofectamine 2000 (Thermo Fisher Scientific, catalog no. 11668019) according to the manufacturer's instructions.
After transfection of plasmids in Pam212 cells, cells were incubated with 3 μg/ml of puromycin (Invivogen, San Diego, Calif., catalog no. ant-pr-1) for positive transfected cell selection. After following 2 days, medium was changed new puromycin contained medium for further selection. After following 2 days, cells were moved to new plate with puromycin contained medium. Puromycin selection was repeated for five times more.
1000 stable cells were seed to 384 wells (Corning, Glendale, Ariz., catalog no. 3570) and each of plate was incubated 24 hours. Following day, 10 μM of FDA-approved Drug Library compounds (Selleckchem, Houston, Tex., catalog no. L1300) were added to each well. After 24 hours, 5 μL of luciferase buffer from Pierce Gaussia luciferase glow assay kit (Thermo Fisher Scientific, Waltham, Mass., catalog no. 16160) were added each well and incubated for 5 min. Each plate was read and measured with luminescence by EnVision 2014 plate reader (Perkin Elmer, Waltham, Mass., catalog no. 2014 EnVision).
To make small molecule screening platform, we generated both IL-33 promoter-luci and control-luci over-expressed stable epithelial cell line (Pam212) by multiple puromycin selection strategy (FIG. 10A). To find molecules that can inhibit IL-33 expression, we tested 1056 FDA-approved small molecules against our reporter cell line. […] To find bona fide inhibitors of IL-33, we checked RNA level of Il33 by qPCR in cells treated with inducer of IL-33 expression, Poly (I:C). After cells were treated by Poly (I:C), RNA level of Il33 was increased compared to carrier group. However, Il33 RNA level was decreased by pitavastatin and tropisetron in Poly I:C-treated cells (FIGS. 10C and D). […] Finally, endogenous IL-33 protein level was decreased after treatment with pitavastatin in a dose-dependent manner (FIG. 10F). Therefore, pitavastatin is a small inhibitor molecule of IL-33.

[2] = tested on: Il33 expression induced by Poly (I:C) in Pam212 cells; assay: Il33 RNA by qPCR in Poly (I:C)-treated Pam212 cells; format: cell-based, mouse
Protocol: (§1) Pam212 cells were grown at 37° C. in DMEM (Thermo Fisher Scientific, Waltham, Mass., catalog no. 11995065) supplemented with 10% fetal bovine serum (Thermo Fisher Scientific, catalog no. 26140079), 1× penicillin-streptomycin-glutamine (Thermo Fisher Scientific, catalog no. 10378016), 1×MEM non-essential amino acids solution (Thermo Fisher Scientific, catalog no. 11140050), 1×HEPES (Thermo Fisher Scientific, catalog no. 15630080) and 0.1% 2-Mercaptoethanol (Thermo Fisher Scientific, catalog no. 21985023). […]
(§2) Mouse dorsal skin samples were homogenized and lysed in RLT lysis solution (QIAGEN, catalog no. 79216)/0.1% MeOH using Mini-BeadBeater-8 (BioSpec Products, Inc., Bartlesville, Okla.). Total RNA was extracted using an RNeasy micro kit and quantified using NanoDrop ND-1100 (NanoDrop Technologies, Wilmington, Del.). cDNA samples were synthesized from 1 μg of total RNA using Invitrogen SuperScripts III Reverse Transcriptase (Thermo Fisher Scientific, catalog no. 18080085). Expression levels of all cDNA samples were determined with LightCycler 480 system (Roche Molecular Systems Inc., Pleasanton, Calif.) using TaqMan Universal Master Mix II (Thermo Fisher Scientific, catalog no. 44-400-40). […]

[3] = tested on: endogenous Il33 expression in PyMT breast cancer cell line; assay: Endogenous Il33 RNA in PyMT breast cancer cell line; format: cell-based, mouse
Protocol: as §1, §2

[4] = biological target: T1, RUNX2 transcription factor (mouse, UniProt Q08775 1-607, limits assumed); assay: immunoprecipitation with anti-IL-33 antibody from transfected Pam212 lysate, immunoblot for RUNX2
T1 construct: Detected by immunoblot (anti-RUNX2 clone D1L7F) after immunoprecipitation of IL-33; The species follows from the mouse cell lines; also called endogenous RUNX2
T1 sequence (Q08775 whole entry): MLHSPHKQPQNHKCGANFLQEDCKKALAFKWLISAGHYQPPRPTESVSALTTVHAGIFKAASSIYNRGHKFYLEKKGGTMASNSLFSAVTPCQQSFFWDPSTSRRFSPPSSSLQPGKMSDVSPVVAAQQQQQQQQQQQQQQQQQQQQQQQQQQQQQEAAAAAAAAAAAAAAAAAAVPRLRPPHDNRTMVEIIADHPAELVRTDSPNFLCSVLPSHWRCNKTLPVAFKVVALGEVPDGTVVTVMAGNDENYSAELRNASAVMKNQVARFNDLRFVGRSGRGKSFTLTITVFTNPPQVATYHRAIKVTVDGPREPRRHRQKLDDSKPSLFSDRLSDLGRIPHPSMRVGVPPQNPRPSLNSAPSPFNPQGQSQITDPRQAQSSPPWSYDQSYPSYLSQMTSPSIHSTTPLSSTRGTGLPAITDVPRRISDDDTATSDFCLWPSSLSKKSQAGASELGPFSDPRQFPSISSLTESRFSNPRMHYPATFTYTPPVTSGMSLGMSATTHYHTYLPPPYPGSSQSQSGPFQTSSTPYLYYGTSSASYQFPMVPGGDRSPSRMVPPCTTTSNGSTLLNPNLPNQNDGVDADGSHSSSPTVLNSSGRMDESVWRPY
Protocol: (G) Immunoblot for interaction between nuclear IL-33 and RUNX2. After Pam212 cells were transfected with IL-33 full length or cytokine domain for 24 hours, cell lysates were subjected to immunoprecipitation with anti-IL-33 antibody followed by immunoblot analysis.
Cell lysates were prepared in buffer-A consisting of 50 mM Tris-HCL (pH 8.0), 150 mM NaCl, 0.5% NP-40 and 1× protease inhibitor cocktail. After confirming the concentration of total proteins, the cell lysates were incubated with IL-33 (Nessy-1) overnight at 4° C. and incubated with 30 μL of 50% slurry of protein A-conjugated Sepharose (Cell Signaling Technology, Danvers, Mass., catalog no. 9863S) for the next 2 hours. The samples were precipitated, washed three times with buffer-A containing 300 mM NaCl. Samples were added to 25 μL SDS sampling buffer (Boston Bioproducts, catalog no. BP-111R) and boiled at 95° C. for 10 min. Samples were subjected to SDS-polyacrylamide gel electrophoresis followed by immunoblot analysis.

IL-33/Control luminescence ratio (inhibitory effect against IL-33 reporter) [1]: small molecule candidates
Molecule: CC1(C)[C@@H](O[C@H]2O[C@H](C(=O)O)[C@@H](O)[C@H](O)[C@H]2O[C@@H]2O[C@H](C(=O)O)[C@@H](O)[C@H](O)[C@H]2O)CC[C@]2(C)[C@H]3C(=O)C=C4[C@@H]5C[C@@](C)(C(=O)O)CC[C@]5(C)CC[C@@]4(C)[C@]3(C)CC[C@@H]12 [ammonium glycyrrhizinate]

Molecule: CCCCCCCCCCCCCCCC[N+](C)(C)C [cetrimonium bromide]
IL-33/Control luminescence ratio (inhibitory effect against IL-33 reporter) [1]: small molecule candidates

IL-33/Control luminescence ratio (inhibitory effect against IL-33 reporter) [1]: small molecule candidates
Molecule: CCCSc1nc(N[C@@H]2C[C@H]2c2ccc(F)c(F)c2)c2nnn([C@@H]3C[C@H](OCCO)[C@@H](O)[C@H]3O)c2n1 [ticagrelor]

IL-33/Control luminescence ratio (inhibitory effect against IL-33 reporter) [1]: small molecule candidates
Molecule: CN1[C@@H]2CC[C@H]1C[C@@H](OC(=O)c1c[nH]c3ccccc13)C2 [tropisetron]
Il33 RNA level [2]: decreased | endogenous Il33 RNA level [3]: inhibitory effect

binding result [4]: no binding
B1: HA-IL-33 cytokine domain (other, mouse, UniProt Q8BVZ5 109-266, looked up)
chain: SIQGTSLLTQSPASLSTYNDQSVSFVLENGCYVINVDDSGKDQEQDQVLLRYYESPCPASQSGDGVDGKKLMVNMSPIKDTDIWLHANDKDYSVELQRGDVSPPEQAFFVLHKKSSDFVSFECKNLPGTYIGVKDNQLALVEEKDESCNNIMFKLSKI
notes: domain: cytokine domain; Overexpressed in Pam212 cells for 24 hours; localized to the cytoplasm; not shown: HA tag from the pcDNA3.1-HA vector
